Laboratory results taken from US20110059953A1, “COMPOUNDS FOR USE IN STABILIZING P53 MUTANTS” (priority 2008, published 2011).

Experiments:
T-p53C-Y220C [1] = biological target: T1, T-p53C-Y220C (Homo sapiens, UniProt P04637, M133L/N239Y/N268D/V203A/Y220C); test: Thermal denaturation using capillary DSC; format: binding; settings: increase in Tm on adding 250 μM of the test compound; 20 μM protein
T1 construct: For all other experiments, the DNA coding for residues 94-312 of T-p53C was inserted into a modified pET24a(+) vector; 6xHis tag + B. stearothermophilus dihydrolipoyl acetyltransferase lipoyl domain (aa 1-85) + TEV site (N, cleaved yes); made in house; host or cells: Escherichia coli BL21 (DE3) or C41 (DE3)
Procedure: Differential Scanning calorimetry (DSC) was used to probe the stabilising effect of the ligands on […]. For a reversible two-state system, the melting temperature, Tm, is the transition temperature where the folded and unfolded states are equally populated.
DSC experiments were performed using a Microcal VP-Capillary DSC instrument (Microcal, Amherst, Mass.) with an active cell volume of ˜125 μl. Protein samples were buffer exchanged into 25 mM NaPi, pH 7.2, 150 mM NaCl, 5 mM DTT. This buffer + the respective concentration of ligand/DMSO was used for baseline scans, so that the only difference between sample and reference cell or sample cell in the measurement and both cells in the baseline scan is the presence of the protein. A final concentration of 20 μM T-p53C-Y220C was used. A pressure of 2.5 bars (nitrogen) was applied to the cell. Temperatures from 10 to 85° C. were scanned at a rate of 250° C./h, with a filtering period of 4 seconds and feedback gain/mode set at medium. Data were analysed with ORIGIN software (Microcal).
The following tables show the results of the thermal denaturation studies using capillary DSC, where ΔTm is the increase in Tm on adding 250 μM of the test compound. The Dunnett significance test (P) value given is the calculated probability that the change in Tm is insignificant.

T-p53C-Y220C [2] = biological target: T1, T-p53C-Y220C; test: Thermal denaturation using fluorescence (Sypro Orange); format: binding; settings: 10 μM protein
Procedure: This was by an adaption of the classical procedure (e.g. ref A6). Thermal unfolding was monitored by the binding of the dye Sypro Orange (5×) using a Rotor-gene 6000 (Corbett Life Science) at 270 K/h in 25 mM NaPi, 150 mM NaCl and 5 mM DTT, pH 7.2 with a protein concentration of 10 μM.
(§1) Where listed, S.E. is the calculated standard error.
as §1

T-p53C-Y220C [3] = biological target: T1, T-p53C-Y220C; test: 1H/15N-HSQC NMR chemical shift binding (KD NMR); settings: KD (@ 20° C.) μM, further NMR studies, some revised values
Procedure: Uniformly ^15N-labelled core domains of T-p53C-Y220C was expressed and purified according to the above described protocol. The low molecular-weight compounds were dissolved in d^6-DMSO to make 10 mM stock solutions. To screen compound mixtures by chemical shift mapping, 10 μl of each of 4 different compounds were mixed together and 25 μl of this mixture was added to 25 μl of D2O and 500 μl of 70 μM T-p53C-Y220C (in 25 mM NaPi, 150 mM NaCl and 5 mM DTT, pH 7.2 ). […] NMR samples were freshly prepared and kept sealed under argon after degassing by repeated cycles of pumping the NMR tube under low pressure (while gently tapping the tube) and returning to atmospheric pressure using a stream of argon gas. This was done to maintain sample stability.
Using Bruker's TopSpin 2.0 software, the number of complex points in t1 was doubled by forward complex linear prediction and shifted squared sine bell window functions were applied to both dimensions prior to zero filling and Fourier transformation. A digital resolution of 2.0 Hz/point in the ^1H frequency dimension and 4.7 Hz/point in the ^15N frequency dimension was used. […] An in-house script was used to analyse chemical shift differences and map these onto PDB protein structures.
For certain compounds an array of different concentrations were used to derive KD values (KD NMR) by fitting a saturation binding equation (Δδ=c+a*[L]/(KD+[L])) to the concentration-dependent chemical shift changes of the relevant shifting peaks.

T-p53C-Y220C [4] = biological target: T1, T-p53C-Y220C; test: Melting temperature of T-p53C-Y220C, method not stated; format: binding
[5] = further studies on compounds described above

| SMILES | ΔTm (T-p53C-Y220C [1]) | ΔTm (° C.) (T-p53C-Y220C [2]; [5]) | Kd (T-p53C-Y220C [3]) | ΔTm (° C.) (T-p53C-Y220C [2]; further compounds) | effect on melting temperature (T-p53C-Y220C [4]) |
| --- | --- | --- | --- | --- | --- |
| CCn1c2ccccc2c2cc(NC(=O)CN3C(=O)c4ccccc4S3(=O)=O)ccc21 [PK117] | 0.47 °C | 0.47 °C |  |  |  |
| CCn1c2ccccc2c2cc(NC(=O)C(C)N3CCN(CC(N)=O)CC3)ccc21 (stereo not shown) [PK152] | 0.22 °C | 0.22 °C |  |  |  |
| CCn1c2ccccc2c2cc(NC(=O)CCc3c(C)[nH]c(=O)c(C#N)c3C)ccc21 [PK141] | 0.48 °C | 0.48 °C |  |  |  |
| CCn1c2ccccc2c2cc(CNCCc3c[nH]c4ccccc34)ccc21 [PK193] | 0.3 °C | 0.3 °C |  |  |  |
| CCn1c2ccccc2c2cc(NC(=S)Nc3cc(S(=O)(=O)N(C)C)ccc3C)ccc21 [PK102] | 0.37 °C | 0.37 °C |  |  |  |
| CCn1c2ccccc2c2cc(NC(=O)COC(=O)c3ccc(-n4cnnn4)cc3)ccc21 [PK138] | 0.54 °C | 0.54 °C |  |  |  |
| CCn1c2ccccc2c2cc(CNCCc3ccccc3)ccc21 [PK194] | 0.38 °C | 0.38 °C |  |  |  |
| CCn1c2ccccc2c2cc(NC(=O)CN3C(=O)NC(C)(c4ccc(C)cc4)C3=O)ccc21 (stereo not shown) [PK110] | 0.37 °C | 0.37 °C |  |  |  |
| Cc1ccc(CN2C[C@@H]3C[C@@H](C)N4CCC[C@@]34C2=O)o1 [PK223] | 0.38 °C | 0.40 °C |  |  |  |
| CCn1c2ccccc2c2cc(NC(=O)CSc3nnc(N)s3)ccc21 [PK099] | 0.53 °C | 0.53 °C |  |  |  |
| COc1ccc(N2CCN(Cc3cc4c(cc3O)[nH]c3ccccc34)CC2)cc1 [PK144] | 0.51 °C | 0.51 °C |  |  |  |
| CCn1c2ccccc2c2cc(NC(=O)CN3C(=O)NC(C)(c4ccc(OC)cc4)C3=O)ccc21 (stereo not shown) [PK160] | 0.42 °C | 0.42 °C |  |  |  |
| CCn1c2ccccc2c2cc(NC(=O)C(C)Sc3nc(N)cc(=O)[nH]3)ccc21 (stereo not shown) [PK143] | 0.24 °C | 0.24 °C |  |  |  |
| CCn1c2ccccc2c2cc(NC(=O)c3ccc(OCC(N)=O)cc3)ccc21 [PK166] | 0.64 °C | 0.64 °C |  |  |  |
| CCn1c2ccccc2c2cc(NC(=O)COC(=O)c3ccc(NC(=O)CC#N)cc3)ccc21 [PK140] | 0.51 °C | 0.513 °C |  |  |  |
| CCn1c2ccccc2c2cc(NC(=O)C(C)OC(=O)c3ccc(-n4cnnn4)cc3)ccc21 (stereo not shown) [PK134] | 0.4 °C | 0.4 °C |  |  |  |
| CCn1c2ccccc2c2cc(NC(=O)Cc3ccc(S(=O)(=O)N4CCOCC4)s3)ccc21 [PK115] | 0.49 °C | 0.49 °C |  |  |  |
| CCn1c2ccccc2c2cc(CN(C)C(=O)c3nccnc3N)ccc21 [PK164] | 0.51 °C | 0.51 °C |  |  |  |
| CCn1c2ccccc2c2cc(CNCCCn3ccnc3)ccc21 [PK214] |  |  | 76 µM | 0.9 °C |  |
| CCn1c2ccccc2c2cc(NC(=O)COC(=O)Cn3cnc4c3c(=O)n(C)c(=O)n4C)ccc21 [PK114] | 0.39 °C | 0.39 °C |  |  |  |
| CCn1c2ccccc2c2cc(CN3CCC(N4CCCCC4)CC3)ccc21 [PK188] | 0.39 °C | 0.39 °C |  |  |  |
| CCn1c2ccccc2c2cc(NC(=O)C(C)OC(=O)c3ccc([N+](=O)[O-])o3)ccc21 (stereo not shown) [PK119] | 0.48 °C | 0.48 °C |  |  |  |
| CCn1c2ccccc2c2cc(CN(C)C(=O)NC3CCS(=O)(=O)C3)ccc21 (stereo not shown) [PK148] | 0.23 °C | 0.225 °C |  |  |  |
| CCn1c2ccccc2c2cc(NC(=O)CSc3nccc(=O)[nH]3)ccc21 [PK095] | 0.39 °C |  |  |  |  |
| CCn1c2ccccc2c2cc(NC(=O)COC(=O)c3cc(C(=O)OC)cc([N+](=O)[O-])c3)ccc21 [PK137] | 0.29 °C | 0.3 °C |  |  |  |
| CCn1c2ccccc2c2cc(NC(=O)CN(CC(N)=O)C(C)C)ccc21 [PK161] | 0.47 °C | 0.46 °C |  |  |  |
| NC(=O)c1c[nH]c2ccccc12 [1H-indole-3-carboxamide] |  |  |  |  | raise its melting temperature |
| CCn1c2ccccc2c2cc(NC(C)C(=O)NC(N)=O)ccc21 (stereo not shown) [PK158] | 0.63 °C | 0.63 °C |  |  |  |

Results, then the molecule that gave them:

| ΔTm (T-p53C-Y220C [1]) | ΔTm (° C.) (T-p53C-Y220C [2]; [5]) | Kd (T-p53C-Y220C [3]) | ΔTm (° C.) (T-p53C-Y220C [2]; further compounds) | effect on melting temperature (T-p53C-Y220C [4]) | SMILES |
| --- | --- | --- | --- | --- | --- |
| 0.64 °C | 0.68 °C |  |  |  | CCn1c2ccccc2c2cc(CN3CCC4(CC3)CC4C(=O)NCCc3ccccn3)ccc21 (stereo not shown) [PK220] |
| 0.25 °C | 0.25 °C |  |  |  | CCn1c2ccccc2c2cc(CN3CCNCC3)ccc21 [PK198] |
| 0.85 °C | 0.873 °C |  |  |  | CCn1c2ccccc2c2cc(CNCCCn3cc(C(=O)N4CCOCC4)nn3)ccc21 [PK219] |
| 0.26 °C | 0.26 °C |  |  |  | CCCN1CCN(C(C)C(=O)Nc2ccc3c(c2)c2ccccc2n3CC)CC1 (stereo not shown) [PK142] |
| 0.5 °C | 0.34 °C |  |  |  | CCn1c2ccccc2c2cc(CN(C)C3CCN(C)CC3)ccc21 [PK178] |
| 0.79 °C | 0.793 °C | 97 µM |  |  | CCC(CO)NCc1ccc2c(c1)c1ccccc1n2CC (stereo not shown) [PK209] |
| 0.53 °C | 0.55 °C |  |  |  | CCn1c2ccccc2c2cc(CN3CCCC(N4CCOCC4)C3)ccc21 (stereo not shown) [PK225] |
| 0.41 °C | 0.4 °C |  |  |  | CCNC(=S)Nc1ccc2c(c1)c1ccccc1n2CC [PK168] |
| 0.57 °C | 0.57 °C | 200 µM |  |  | CCn1c2ccccc2c2cc(CNCCN(C)C)ccc21 [PK207] |
| 0.47 °C | 0.493 °C |  |  |  | CCn1c2ccccc2c2cc(CN3CCN(C)C(CCO)C3)ccc21 (stereo not shown) [PK217] |
| 1.11 °C | 1.0 °C | 113 µM |  |  | CCn1c2ccccc2c2cc(C3CC4CN(C)C(=O)C45CCCN35)ccc21 (stereo not shown) [PK226] |
| 0.52 °C | 0.54 °C |  |  |  | CCn1c2ccccc2c2cc(CN3CCC(n4cc(C(=O)NCCO)nn4)CC3)ccc21 [PK221] |
| 0.58 °C | 0.58 °C | 120 µM |  |  | CCn1c2ccccc2c2cc(CNCCO)ccc21 [PK211] |
| 0.4 °C | 0.4 °C |  |  |  | CCn1c2ccccc2c2cc(CN3CCC(N4CCN(CCO)CC4)CC3)ccc21 [PK205] |
| 0.23 °C | 0.23 °C |  |  |  | CCN(CCN(C)C)Cc1ccc2c(c1)c1ccccc1n2CC [PK189] |
